Converted amounts (≈) assume the structure as drawn.
Test system: Porphyromonas gingivalis
Experiment: Antibacterial MIC testing (agar dilution, anaerobic)
Assay type: cell-based
Conditions: supplemented Brucella agar, 44 h, 36° C.
Method: Epetraborole was placed is a stock solution and stored at −70° C. Serial two-fold dilutions were prepared on the day of testing.
Porphyromonas gingivalis organisms were recovered from clinical samples, identified by standard methods or by partial sequencing of the 16S gene and stored in 20% skim milk at −70° C. All isolates were taken from the freezer and subcultured at least twice on supplemented Brucella agar to ensure good growth. Inocula were prepared by direct suspensions of cells from 48 h cultures into saline or Brucella broth.
For all tested organisms, supplemented Brucella agar deeps were obtained from Anaerobe Systems (Morgan Hill, CA). Defibrinated sheep blood (Hardy Diagnostics, Santa Maria, CA) was frozen and thawed to produce laked blood. On the day of testing, laked blood and the antimicrobial agents were added to the tubes of molten agar before pouring the agar dilution plates. The strains were applied to the plates using a Steers multipronged inoculator for a final concentration of approximately 10^5 cfu/spot. After 44 h incubation at 36° C. in the anaerobic chamber incubator, the plates were examined for growth, and the MICs interpreted.

NC[C@H]1OB(O)c2c(OCCCO)cccc21 [Epetraborole]
MIC (Po. gingivalis clinical isolate RMA# 15676 (Abd-perit.fld)): 2 µg/mL (≈ 8.44 µM)
MIC (Po. gingivalis clinical isolate RMA# 15913 (Abd-perit.fld)): 2 µg/mL (≈ 8.44 µM)
MIC (Po. gingivalis clinical isolate RMA# 16269 (Abd-perit.fld)): 0.125 µg/mL (≈ 0.527 µM)
MIC (Po. gingivalis clinical isolate RMA# 16389 (Abd-perit.fld)): 0.5 µg/mL (≈ 2.11 µM)

Source: US20250000883A1, “TREATING NEUROINFLAMMATORY CONDITIONS” (AN2 Therapeutics, Inc., priority 2021, published 2025)
